This note sets out measurements from US20230172207A1 (BASF SE, priority 2020, published 2023).

Test [1] has as its system Septoria tritici. Briefly: Micro titer plate test against Septoria tritici causing leaf blotch on wheat (SEPTTR). Type of test: cell-based. As to conditions: 0.25 ppm.
The subject of test [2] is Phakopsora pachyrhizi (F129L). Briefly: Protective control of soybean rust on soybeans (PHAKPA P6). Particulars: for % PHAKPA (F129L) Disease level, P6 at 4 ppm: protective P6, 4 ppm; for % PHAKPA (F129L) Disease level, P6 at 16 ppm: protective P6, 16 ppm. Type of test: in vivo.
Test [3] has as its system Phakopsora pachyrhizi (F129L). Kind of test: Protective control of soybean rust on soybeans (PHAKPA P2). It counts as in vivo. As to conditions: for % PHAKPA (F129L) Disease level, P2 at 4 ppm: protective P2, 4 ppm; for % PHAKPA (F129L) Disease level, P2 at 16 ppm: protective P2, 16 ppm.
Test [4] concerns Alternaria solani (F129L). Kind of test: Micro titer plate test against Alternaria solani causing early blight (ALTESO F129L). It counts as cell-based. As to conditions: 0.016 ppm, relative growth vs compound-free control (100%), 7 days.
The subject of test [5] is Leptosphaeria nodorum. Kind of test: Micro titer plate test against Leptosphaeria nodorum causing wheat leaf spots (LEPTNO). Type of test: cell-based. As to conditions: 0.063 ppm; for activity at 0.063 ppm: Parastagonospora nodorum, 168 h, read-out: Fungal growth (%) LEPTNO.
For test [6], the system named is Colletotrichum orbiculare. Kind of test: Micro titer plate test against Colletotrichum orbiculare causing anthracnose (COLLLA). It counts as cell-based. As to conditions: 0.063 ppm.
For test [7], the system named is Pyrenophora teres (wt). Briefly: Micro titer plate test against Pyrenophora teres causing net blotch on barley (PYRNTE wt). Type of test: cell-based. As to conditions: 0.25 ppm.
Test [8] has as its system Cercospora sojina. Briefly: microbe, parasite or virus in culture. It counts as cell-based. As to conditions: 168 h, read-out: Fungal growth (%) CERCSO.
Test [9] relates to Alternaria solani (wt). Briefly: microbe, parasite or virus in culture. It counts as cell-based. Particulars: Alternaria solani, 168 h, read-out: Fungal growth (%) ALTESO wt.
For test [10], the system named is Pyricularia oryzae. Kind of test: microbe, parasite or virus in culture. Type of test: cell-based. As to conditions: Pyricularia oryzae, 168 h, read-out: Fungal growth (%) PYRIOR.
[11] abbreviates: relative growth vs compound-free control (100%), 7 days.
Setting [12] is: protective, inoculation six days after spraying, % diseased leaf area.
[13] abbreviates: protective, inoculation 2 days after spraying, % diseased leaf area.

Take `CNC(=O)/C(=N/OC)c1cccc(C)c1CO/N=C(\OC)c1cccc(C(F)(F)F)c1`: in [1] (setting [11]), the “Fungal growth (%) SEPTTR” value is recorded as 77%.
Consider `CO/N=C(/C(=O)OC)c1cccc(C)c1CO/N=C(\C)c1ccccc1F` [Ex. 1], for which, in [2] (setting [12]), the “PHAKPA (F129L) Disease level (%) P6 at 16 ppm” value (from here on “PHAKPA … (%) P6 at 16 ppm”) worked out at 47%. Also, in test [2] (soybean rust F129L), the “% PHAKPA (F129L) Disease level, P6 at 4 ppm” value (“% PHAKPA … P6 at 4 ppm” below) is 90% and the “% PHAKPA (F129L) Disease level, P6 at 16 ppm” value (“% PHAKPA … P6 at 16 ppm” below) is 56%. In addition, in test [3] (setting [13]), the “PHAKPA (F129L) Disease level (%) P2 at 16 ppm” value was 28%. Further, in test [3] (soybean rust F129L), the “% PHAKPA (F129L) Disease level, P2 at 4 ppm” value (shortened to “% PHAKPA … P2 at 4 ppm”) worked out at 80% and the “% PHAKPA (F129L) Disease level, P2 at 16 ppm” value (“% PHAKPA … P2 at 16 ppm” below) is recorded as 27%.
For the compound `CNC(=O)/C(=N/OC)c1cccc(C)c1CO/N=C(\C)c1cccc(C(F)(F)F)c1` [compound 8], the “PHAKPA (F129L) Disease level (%) P6 at 4 ppm” value in [2] (4 ppm, protective, inoculation six days after spraying, % diseased leaf area) is 13%. In addition, the “% PHAKPA … P6 at 4 ppm” value in test [2] turned out to be 1%. The “Fungal growth (%) ALTESO F129L” value in [4] (listed as Ex. 8) was found to be 52%. Besides, in test [5] (setting [11]), the “Fungal growth (%) LEPTNO” value is 70%.
As for `CO/N=C(/C(=O)OC)c1cccc(C)c1CO/N=C(\C)c1cccc(C(F)(F)F)c1` [compound 9], the “PHAKPA … (%) P6 at 16 ppm” value in test [2] (setting [12]) is reported as 4%. Besides, the “% PHAKPA … P6 at 16 ppm” value in [2] stood at 1%.
As for `CO/N=C(/C(=O)OC)c1cccc(C)c1CO/N=C(\C)c1cccc(OC(F)(F)F)c1` [compound 28], the “PHAKPA … (%) P6 at 16 ppm” value in [2] (setting [12]) was found to be 18%. Moreover, the “% PHAKPA … P6 at 16 ppm” value in [2] (soybean rust F129L) was 0%. Besides, the “PHAKPA (F129L) Disease level (%) P2 at 16 ppm” value in test [3] (setting [13]) is on record as 30%. In addition, the “% PHAKPA … P2 at 16 ppm” value in test [3] (soybean rust F129L) was found to be 0%.
Take `CO/N=C(/C(=O)OC)c1cccc(C)c1CO/N=C(\C)c1cccc(C)c1` [compound 76]: in [2] (setting [12]), the “PHAKPA … (%) P6 at 16 ppm” value stood at 0%. In addition, in test [2], the “% PHAKPA … P6 at 16 ppm” value was found to be 4%. Further, the “Fungal growth (%) SEPTTR” value in test [1] (setting [11]) came to 0%. The “% PHAKPA … P2 at 4 ppm” value in test [3] worked out at 35%.
Regarding `CNC(=O)/C(=N/OC)c1cccc(C)c1CO/N=C(\C)c1cccc(C)c1` [compound 77], in test [6], the “Fungal growth (%) COLLLA” value stood at 39%. Also, the “Fungal growth (%) SEPTTR” value in test [1] is given as 49%.
As to `CNC(=O)/C(=N/OC)c1cccc(C)c1CO/N=C(\C)c1ccccc1C` [compound 127], in test [2] (soybean rust F129L), the “% PHAKPA … P6 at 4 ppm” value came out at 93% and the “% PHAKPA … P6 at 16 ppm” value is 62%. Moreover, in test [3] (soybean rust F129L), the “% PHAKPA … P2 at 4 ppm” value is recorded as 90% and the “% PHAKPA … P2 at 16 ppm” value is on record as 44%.
Consider `CO/N=C(/C(=O)OC)c1cccc(C)c1CO/N=C(\C)c1cccc(Cl)c1` [compound 153], for which the “Fungal growth (%) PYRNTE wt” value in test [7] is given as 31%. Also, the “PHAKPA … (%) P6 at 16 ppm” value in [2] (setting [12]) amounted to 1%. In addition, the “% PHAKPA … P6 at 16 ppm” value in test [2] stood at 5%. In addition, the “Fungal growth (%) COLLLA” value in test [6] is recorded as 55%. For the same compound, the “Fungal growth (%) SEPTTR” value in test [1] is listed as 0%. Besides, in [5], the “Fungal growth (%) LEPTNO” value is 55%. In addition, the “% PHAKPA … P2 at 4 ppm” value in test [3] came out at 19%.
As to `CNC(=O)/C(=N/OC)c1cccc(C)c1CO/N=C(\C)c1cccc(Cl)c1` [compound 157], the “Fungal growth (%) PYRNTE wt” value in [7] was 54%. The “% PHAKPA … P6 at 16 ppm” value in test [2] stood at 1%. In [6], the “Fungal growth (%) COLLLA” value was 63%. The “Fungal growth (%) SEPTTR” value in test [1] turned out to be 20%. For the same compound, the “PHAKPA (F129L) Disease level (%) P2 at 4 ppm” value in test [3] (4 ppm, protective, inoculation 2 days after spraying, % diseased leaf area) amounted to 0%. Also, the “% PHAKPA … P2 at 4 ppm” value in [3] is on record as 1%.
As for `CNC(=O)/C(=N/OC)c1cccc(C)c1CO/N=C(\CC(F)(F)F)c1ccc(F)cc1C` [compound 394], in [2], the “% PHAKPA … P6 at 4 ppm” value is recorded as 12% and the “% PHAKPA … P6 at 16 ppm” value came to 2%. In [3], the “% PHAKPA … P2 at 4 ppm” value is 9% and the “% PHAKPA … P2 at 16 ppm” value was 3%.
For `C=Cc1cccc(/C(=N\OC)C(=O)NC)c1CO/N=C(\C)c1ccccc1` [compound 400], in that order: 8%, 0%, 2% and 0%.
On the same counts, the results for `CNC(=O)/C(=N/OC)c1cccc(C)c1CO/N=C(\C)c1c(Cl)cc(Cl)cc1OC(F)(F)F` [compound 428] are 83%, 20%, 70% and 11%.
For the compound `CO/N=C(/C(=O)OC)c1cccc(C)c1CO/N=C(\SC)c1cccc(C)c1` [drawing 952], the “Fungal growth (%) SEPTTR” value in test [1] (setting [11]) was 61%.
Still for that read-out and setting: as for `CO/N=C(/C(=O)OC)c1cccc(C)c1CO/N=C(/c1cccc(C)c1)C1CC1` [drawing 953], the figure is 89%.
On to `CO/N=C(/C(=O)OC)c1cccc(C)c1CO/N=C(\C)c1cccc(C)c1` [drawing 956, reference compound], for which, in test [7] (Pyrenophora teres, 168 h, relative growth vs compound-free control (100%), 7 days, read-out: Fungal growth (%) PYRNTE wt), the activity at 0.25 ppm was found to be 53%. In test [8], the activity at 4 ppm turned out to be 67%. Moreover, the activity at 0.016 ppm is 81% in test [4] (Alternaria solani, 168 h, read-out: Fungal growth (%) ALTESO F129L) and 93% in test [9]. The activity at 0.063 ppm in test [5] (setting [11]) worked out at 65%.
Turning to `CNC(=O)/C(=N/OC)c1cccc(C)c1CO/N=C(\OC)c1cccc(C)c1` [drawing 959], the “Fungal growth (%) SEPTTR” value in [1] is recorded as 100%.
On the same count and under the same terms, as for `CNC(=O)/C(=N/OC)c1cccc(C)c1CO/N=C(/c1cccc(C)c1)C1CC1` [drawing 960], the figure is 87%; as for `CO/N=C(/C(=O)OC)c1cccc(C)c1CO/N=C(\SC)c1cccc(Cl)c1` [drawing 962], 39%; as for `CO/N=C(/C(=O)OC)c1cccc(C)c1CO/N=C(/c1cccc(Cl)c1)C1CC1` [drawing 963], 39%.
Take `CNC(=O)/C(=N/OC)c1cccc(C)c1CO/N=C(\SC)c1cccc(Cl)c1` [drawing 968]: the “Fungal growth (%) SEPTTR” value in test [1] is 59%.
In the case of `CO/N=C(/C(=O)OC)c1cccc(C)c1CO/N=C(/c1cccc(C)c1)C1CC1` [drawing 973, reference compound], in test [2], the “% PHAKPA … P6 at 16 ppm” value came to 37%. The “% PHAKPA … P2 at 4 ppm” value in test [3] was found to be 80%.
On to `CO/N=C(/C(=O)OC)c1cccc(C)c1CO/N=C(\SC)c1cccc(C)c1` [drawing 974, reference compound], for which, in [2], the “% PHAKPA … P6 at 16 ppm” value was 30%. In addition, the “% PHAKPA … P2 at 4 ppm” value in test [3] was 60%.
As for `CNC(=O)/C(=N/OC)c1cccc(C)c1CO/N=C(\OC)c1cccc(C)c1` [drawing 976, reference compound], the “% PHAKPA … P6 at 16 ppm” value in [2] came out at 45%.
In the case of `CNC(=O)/C(=N/OC)c1cccc(C)c1CO/N=C(/c1cccc(C)c1)C1CC1` [drawing 977, reference compound], the “% PHAKPA … P6 at 16 ppm” value in [2] is given as 67%. For the same compound, the “% PHAKPA … P2 at 4 ppm” value in [3] is reported as 67%.
On to `CNC(=O)/C(=N/OC)c1cccc(C)c1CO/N=C(\SC)c1cccc(Cl)c1` [drawing 981, reference compound], for which the “% PHAKPA … P6 at 16 ppm” value in test [2] is recorded as 9%. The “% PHAKPA … P2 at 4 ppm” value in [3] is recorded as 20%.
For `CO/N=C(/C(=O)OC)c1cccc(C)c1CO/N=C(/c1cccc(Cl)c1)C1CC1` [drawing 983, reference compound], in that order: 87% and 83%.
On to `CO/N=C(/C(=O)OC)c1cccc(C)c1CO/N=C(\SC)c1cccc(Cl)c1` [drawing 984, reference compound], for which the “% PHAKPA … P6 at 16 ppm” value in test [2] worked out at 18%. In addition, the “% PHAKPA … P2 at 4 ppm” value in test [3] is recorded as 47%.
Regarding `CO/N=C(/C(=O)OC)c1cccc(C)c1CO/N=C(\OC)c1cccc(OC(F)(F)F)c1` [reference compound], the activity at 4 ppm in test [8] was 56%. The activity at 0.063 ppm in test [5] (setting [11]) came out at 100%. Besides, the activity at 0.016 ppm in test [10] worked out at 58%.
Take `CO/N=C(/C(=O)OC)c1cccc(C)c1CO/N=C(\OC)c1cccc(C)c1` [reference compound]: the “% PHAKPA … P6 at 16 ppm” value in test [2] stood at 57%. Further, the “% PHAKPA … P2 at 4 ppm” value in test [3] is reported as 83%.
On to `CO/N=C(/C(=O)OC)c1cccc(C)c1CO/N=C(\OC)c1cccc(C(F)(F)F)c1` [reference compound], for which, in test [2], the “% PHAKPA … P6 at 16 ppm” value came to 23%.
As to `CNC(=O)/C(=N/OC)c1cccc(C)c1CO/N=C(\SC)c1cccc(C(F)(F)F)c1` [reference compound], the “% PHAKPA … P6 at 4 ppm” value in test [2] was found to be 43%.
